According to patent publication US12667574B2, “Paraxanthine-based bioactive composition and method of use thereof” (PX ING, LLC, priority 2021, dated 2026):

Key:
male Swiss Albino mice = experiment: Treadmill endurance test (first Example 4, L-Theanine); format: in vivo; conditions: oral once daily 28 days, HED 50 mg paraxanthine, 25 mg L-Theanine
Description: (§1) Distilled water was provided ad libitum. […] Ltd (Bangalore, India).
(§2) The following HED were used in this study: 50 mg paraxanthine, (ENFINITY™ Ingenious Ingredients, L.P Lewisville, TX, USA; mouse dose: 10.275 mg/kg bw/day); 25 mg L-Theanine (mouse dose: 5.137 mg/kg bw), and 50 mg paraxanthine plus 25 mg L-Theanine. 0.5% Carboxy Methyl Cellulose sodium was used as vehicle and the test item formulations were prepared daily.
During the treatment period, exercise training was completed using a motorized treadmill (Exer 3/6, Columbus Instruments international, OH, USA) at a moderate intensity of 20 cm/sec as maximal running speed, an incline of ten degrees and a shock intensity of 0.2 mA, for ten minutes. The speed of the treadmill was manually adjusted by increasing the belt speed by 5 cm/sec every two minutes throughout the total duration of ten minutes. All animals were adapted to this procedure daily 60 minutes after dosing for five days in a week during the treatment period. 1.3. Treadmill Endurance Test
Muscle endurance was accomplished on a motorized treadmill at a low to moderate intensity of 5-50 cm/sec as maximal running speed, an incline of ten degrees and a shock intensity of 0.2 mA, with the belt speed being increased by 5 cm/sec every two minutes until it reaches 50 cm/sec. Animals were subjected to the treadmill test until exhaustion.

[1] = test system: male Swiss Albino Wistar rats; experiment: Walter Morris Maze test (second Example 4, L-Theanine); format: in vivo; conditions: oral 14 days
Description: as §1
as §2, with “(ENFINITY™,” for “(ENFINITY™”, “rat” for “mouse”, “5.141” for “10.275”, “(rat” for “(mouse”, “2.570” for “5.137”, “daily. […] The last dose on day 14 was given 1 hour prior to testing.” for “daily.”
The Walter Morris Maze test consisted of a circular pool in a room with geometric shapes on the wall serving as spatial cues. The pool, which is 70 cm in diameter and painted with black color, filled with 13 cm depth of 25±1° C. water. A platform (6 cm diameter) was placed into one quadrant of the pool and submerged 1 cm below the water surface. For the training, all rats were trained to locate the submerged platform in a constant location. The training day consisted of four trials. During training, a rat started at one of four starting points and allowed to swim until it located the platform or until 60 seconds had elapsed. The rat was allowed to remain on the platform for 15 seconds before being dried off and later was transferred to a holding cage. […] The animals were continuously trained 4 times at 4 starting points continued daily for 4 days, the main trial was conducted on the 15th & 16th day and the latency of escaping onto the platform was recorded.

[2] = test system: brain derived neuro factor, BDNF; experiment: BDNF level, neuroplasticity (second Example 4); format: in vivo, rats; conditions: oral 14 days
Description: as §1
as §2, with “(ENFINITY™,” for “(ENFINITY™”, “rat” for “mouse”, “5.141” for “10.275”, “(rat” for “(mouse”, “2.570” for “5.137”, “daily. […] The last dose on day 14 was given 1 hour prior to testing.” for “daily.”

acetylcholine (Ach) [3] = experiment: Acetylcholine concentration (second Example 4); format: in vivo, rats; conditions: oral 14 days
Description: as §1
as §2, with “(ENFINITY™,” for “(ENFINITY™”, “rat” for “mouse”, “5.141” for “10.275”, “(rat” for “(mouse”, “2.570” for “5.137”, “daily. […] The last dose on day 14 was given 1 hour prior to testing.” for “daily.”

dopamine (dopa) [4] = experiment: Dopamine concentration (second Example 4); format: in vivo, rats; conditions: oral 14 days
Description: as §1
as §2, with “(ENFINITY™,” for “(ENFINITY™”, “rat” for “mouse”, “5.141” for “10.275”, “(rat” for “(mouse”, “2.570” for “5.137”, “daily. […] The last dose on day 14 was given 1 hour prior to testing.” for “daily.”

glutathione (GSH) [5] = experiment: Glutathione level (second Example 4); format: in vivo, rats; conditions: oral 14 days
Description: as §1
as §2, with “(ENFINITY™,” for “(ENFINITY™”, “rat” for “mouse”, “5.141” for “10.275”, “(rat” for “(mouse”, “2.570” for “5.137”, “daily. […] The last dose on day 14 was given 1 hour prior to testing.” for “daily.”

[6] = test system: male Swiss Albino Wistar rats; experiment: Walter Morris Maze test (Example 3); format: in vivo; conditions: oral 14 days
Description: Distilled water was provided ad libitum. […] Ltd (Bangalore, India). […] The last dose on day 14 was given 1 hour prior to testing. The Walter Morris Maze test consisted of a circular pool in a room with geometric shapes on the wall serving as spatial cues. The pool, which is 70 cm in diameter and painted with black color, filled with 13 cm depth of 25±1° C. water. A platform (6 cm diameter) was placed into one quadrant of the pool and submerged 1 cm below the water surface. For the training, all rats were trained to locate the submerged platform in constant location. The training day consisted of four trials. […] The rat was allowed to remain on the platform for 15 seconds before being dried off and later was transferred to a holding cage.

[7] = test system: brain derived neuro factor, BDNF; experiment: BDNF level, neuroplasticity (Example 3); format: in vivo, rats; conditions: oral 14 days
Description: as §1
(§3) 0.5% Carboxy Methyl Cellulose sodium was used as vehicle and the test item formulations were prepared daily. […] The last dose on day 14 was given 1 hour prior to testing.

acetylcholine (Ach) [8] = experiment: Acetylcholine concentration (Example 3); format: in vivo, rats; conditions: oral 14 days
Description: as §1, §3

dopamine (dopa) [9] = experiment: Dopamine concentration (Example 3); format: in vivo, rats; conditions: oral 14 days
Description: as §1, §3

glutathione (GSH) [10] = experiment: Glutathione level (Example 3); format: in vivo, rats; conditions: oral 14 days
Description: as §1, §3

## CCNC(=O)CC[C@H](N)C(=O)O [L-Theanine, N5-ethyl-L-glutamine, reference compound]
Male Swiss Albino mice
  distance travelled during treadmill exercise: 295.17±6.11 m
[1]; old rats (16-month-old)
  escape latency: 44.67 ± 2.16 s
[1]; young rats (8-week-old)
  escape latency: 38.33 ± 2.07 s
[2]; old rats
  BDNF: 789.1 ± 2.03 pg/mL
[2]; young rats
  BDNF: 866 ± 8.66 pg/mL
Acetylcholine (Ach) [3]; old rats
  acetylcholine (Ach) concentration: 55.89±1.05 U/mL
Acetylcholine (Ach) [3]; young rats
  acetylcholine (Ach) concentration: 62.83±0.91 U/mL
Dopamine (dopa) [4]; old rats
  dopamine (dopa) concentration: 473.03 ± 6.05 ng/L
Dopamine (dopa) [4]; young rats
  dopamine (dopa) concentration: 528.18 ± 4.09 ng/L
Glutathione (GSH) [5]; old rats
  glutathione (GSH) level: 23.87 ± 0.45 µg/mL
Glutathione (GSH) [5]; young rats
  glutathione (GSH) level: 31.72 ± 0.53 µg/mL

## C[N+](C)(C)CCOP(=O)([O-])OC[C@H](O)CO [alpha-GPC, L-Alpha glycerylphosphorylcholine, reference compound]
[6]; old rats (16-month-old)
  escape latency: 39.83 ± 0.98 s
[6]; young rats (8-week-old)
  escape latency: 34.83 ± 1.33 s
[7]; old rats
  BDNF: 881.70 ± 10.41 µg/mL
[7]; young rats
  BDNF: 881.70 ± 10.41 µg/mL
Acetylcholine (Ach) [8]; old rats
  acetylcholine (Ach) concentration: 56.89±1.76 U/mL
Acetylcholine (Ach) [8]; young rats
  acetylcholine (Ach) concentration: 65.89±1.64 U/mL
Dopamine (dopa) [9]; old rats
  dopamine (dopa) concentration: 506.35 ± 2.82 ng/L
Dopamine (dopa) [9]; young rats
  dopamine (dopa) concentration: 563.55 ± 7.98 ng/L
Glutathione (GSH) [10]; old rats
  glutathione (GSH) level: 24.72 ± 0.48 µg/mL
Glutathione (GSH) [10]; young rats
  glutathione (GSH) level: 31.72 ± 0.53 µg/mL
